Laboratory results as given in patent publication US20140235545A1, “The use of HCV immunogenic peptide or a derivative thereof in the prevention or treatment of arthritis” (priority 2011, published 2014).
No end group written: not given here.

System: adjuvant arthritis (Freund's complete adjuvant)
Assay: Protective effect of peptide A on adjuvant arthritis in rats
Format: in vivo, SD rats
Conditions: for ankle joint swelling value: X±SD; for ankle joint swelling value / Lesion scoring ( X ± SD), joint lesion severity: n=10; for inhibition rate of ankle joint swelling: vs model group; for Lesion scoring ( X ± SD), joint lesion severity: 32nd day, left rear ankle joint histopathology, lower score = milder
Experimental: SPF-level SD rats, each weighting 180 g-220 g, with male and female each in half, provided by Experimental Animal Center of Chinese Academy of Military Medical.
Peptide A (which was prepared with the same procedure as in Embodiment 1). It was to be dissolved in physiological saline when used.
SD rats, with male and female each in half, were randomly divided into five groups with 10 rats in each group, respectively were model group (employing physiological saline and Freund's complete adjuvant); control group (employing the same volume of physiological saline as the model group); peptide A high, medium and low dose groups (employing Freund's complete adjuvant and peptide A, wherein each group was given different doses of peptide A, respectively were 174 μg/kg·d, 87 μg/kg·d and 43.5 μg/kg·d, peptide A was dissolved in physiological saline to form peptide A solution with desired concentration). Peptide A solution in each dose was administered by subcutaneous injection, 0.1 ml of peptide A solution per 100 g body weight of rats. The control group employed the same amount of physiological saline as the peptide A solution (0.1 ml of physiological saline per 100 g body weight of rats).
Each group rats were administered according to the following manner. These rats were normally fed every day during the administration.
On the 1st day (including this day), except the control group, for rats of other groups (the model group and the peptide A high, medium and low dose groups), 0.5 ml of Freund's complete adjuvant was subcutaneously injected into plantar skin of right rear foot of every rat. Then, they were subcutaneously injected with 0.05 ml of Freund's complete adjuvant for one time every other day, a total of 15 times.
From the 2nd day (including this day), the rats of peptide A high, medium and low dose groups each were administered with corresponding the dose of peptide A. Then, they were subcutaneously injected with the dose the amount of peptide A for one time every other day, a total of 15 times. At the same time, the rats of the control group and the model group were subcutaneously injected the same amount of physiological saline as that of the peptide A for the high, medium and low dose groups for one time every other day, a total of 15 times.
Measurement for the experimental results was conducted as follows. Firstly, before administration to rats of each group, left rear ankle circumference […] of each rat was measured by a flexible rule as a base value, and then circumference of left rear ankle with inflammation of each rat was measured at the 4th, 8th, 12th, 16th, 20th, 24th, 28th, and 32nd day, respectively. Swelling value obtained by circumference after inflammation minus circumference before inflammation was used to observe changes of primary and secondary inflammation of Freund's complete adjuvant-induced rats.
Secondly, at the 32nd day, rats of each group were killed, and their left rear foot ankle joints ware quickly taken out, fixed in 10% formalin and then embedded in paraffin after decalcification, sectioned and stained with HE. The proliferation of synovial tissue, degeneration of covering epithelial cells (synovial cells), congestion of interstitial substance, inflammatory cell infiltration, damage or fibrosis of arthrodial cartilage, and inflammatory cell infiltration or fibrosis of subcutaneous tissue around the joint, were observed. According to severity of joint lesions, the lesions were scored as “1 score (few or mild lesion)”, “2 scores (moderate or medium lesion)”, “3 scores (large or severe lesion)”, and “4 scores (very severe lesion)”. Very mild lesion was scored as “0.5”, and no lesion tissue was scored as “0”. Accumulate all scores to obtain a total score for one group, and then calculate average score ( X±SD) for each animal in each group. The lower score indicates the milder grade of the lesion. […]

[1] = high dose 174 μg/kg·d s.c., the 4th day
[2] = high dose 174 μg/kg·d s.c., the 8th day
[3] = high dose 174 μg/kg·d s.c., the 12th day
[4] = high dose 174 μg/kg·d s.c., the 16th day
[5] = high dose 174 μg/kg·d s.c., the 20th day
[6] = high dose 174 μg/kg·d s.c., the 24th day
[7] = high dose 174 μg/kg·d s.c., the 28th day
[8] = high dose 174 μg/kg·d s.c., the 32nd day
[9] = low dose 43.5 μg/kg·d s.c., the 4th day
[10] = low dose 43.5 μg/kg·d s.c., the 8th day
[11] = low dose 43.5 μg/kg·d s.c., the 12th day
[12] = low dose 43.5 μg/kg·d s.c., the 16th day
[13] = low dose 43.5 μg/kg·d s.c., the 20th day
[14] = low dose 43.5 μg/kg·d s.c., the 24th day
[15] = low dose 43.5 μg/kg·d s.c., the 28th day
[16] = low dose 43.5 μg/kg·d s.c., the 32nd day
[17] = medium dose 87 μg/kg·d s.c., the 4th day
[18] = medium dose 87 μg/kg·d s.c., the 8th day
[19] = medium dose 87 μg/kg·d s.c., the 12th day
[20] = medium dose 87 μg/kg·d s.c., the 16th day
[21] = medium dose 87 μg/kg·d s.c., the 20th day
[22] = medium dose 87 μg/kg·d s.c., the 24th day
[23] = medium dose 87 μg/kg·d s.c., the 28th day
[24] = medium dose 87 μg/kg·d s.c., the 32nd day

GQTYTSG [Peptide A]
arthritis lesion (histopathology) after administration (all dose groups, effect in descending order high, medium, low): reduced in different degrees | ankle joint swelling value [1]: 8.5 ± 1.5 mm | inhibition rate of ankle joint swelling [1]: (17.5%) | ankle joint swelling value [2]: 10.2 ± 1.7 mm | inhibition rate of ankle joint swelling [2]: (28.2%) | ankle joint swelling value [3]: 10.8 ± 1.5 mm | inhibition rate of ankle joint swelling [3]: (31.6%) | ankle joint swelling value [4]: 11.1 ± 1.6 mm | inhibition rate of ankle joint swelling [4]: (39.7%) | ankle joint swelling value [5]: 11.4 ± 1.8 mm | inhibition rate of ankle joint swelling [5]: (37.4%) | ankle joint swelling value [6]: 10.8 ± 1.7 mm | inhibition rate of ankle joint swelling [6]: (38.3%) | ankle joint swelling value [7]: 10.4 ± 1.8 mm | inhibition rate of ankle joint swelling [7]: (37.7%) | ankle joint swelling value [8]: 9.5 ± 1.9 mm | inhibition rate of ankle joint swelling [8]: (39.9%) | Lesion scoring ( X ± SD), joint lesion severity (high dose group (174 μg/kg·d s.c.)): 3.60 ± 1.26 | inhibition rate to the joint swelling (high dose group (174 μg/kg·d)): ~40% | joint swelling compared with rats of the model group (high, medium and low dose groups, observation): significantly reduced joint swelling | skin ulcer symptom (high, medium and low dose groups, part of model rats had skin ulcers on the 24th day): did not have skin ulcer symptom | ankle joint swelling value [9]: 9.3 ± 1.4 mm | inhibition rate of ankle joint swelling [9]: (9.7%) | ankle joint swelling value [10]: 13.5 ± 2.1 mm | inhibition rate of ankle joint swelling [10]: (4.9%) | ankle joint swelling value [11]: 13.9 ± 1.6 mm | inhibition rate of ankle joint swelling [11]: (12.0%) | ankle joint swelling value [12]: 14.2 ± 1.7 mm | inhibition rate of ankle joint swelling [12]: (22.8%) | ankle joint swelling value [13]: 14.6 ± 2.3 mm | inhibition rate of ankle joint swelling [13]: (19.8%) | ankle joint swelling value [14]: 14.2 ± 1.4 mm | inhibition rate of ankle joint swelling [14]: (18.8%) | ankle joint swelling value [15]: 14.0 ± 1.8 mm | inhibition rate of ankle joint swelling [15]: (16.2%) | ankle joint swelling value [16]: 13.8 ± 1.5 mm | inhibition rate of ankle joint swelling [16]: (12.6%) | Lesion scoring ( X ± SD), joint lesion severity (low dose group (43.5 μg/kg·d s.c.)): 4.10 ± 0.99 | ankle joint swelling value [17]: 8.9 ± 1.6 mm | inhibition rate of ankle joint swelling [17]: (13.6%) | ankle joint swelling value [18]: 11.9 ± 1.8 mm | inhibition rate of ankle joint swelling [18]: (16.2%) | ankle joint swelling value [19]: 12.1 ± 2.3 mm | inhibition rate of ankle joint swelling [19]: (23.4%) | ankle joint swelling value [20]: 12.9 ± 1.8 mm | inhibition rate of ankle joint swelling [20]: (29.9%) | ankle joint swelling value [21]: 13.2 ± 1.4 mm | inhibition rate of ankle joint swelling [21]: (27.5%) | ankle joint swelling value [22]: 13.0 ± 1.8 mm | inhibition rate of ankle joint swelling [22]: (25.7%) | ankle joint swelling value [23]: 12.8 ± 1.6 mm | inhibition rate of ankle joint swelling [23]: (23.4%) | ankle joint swelling value [24]: 12.5 ± 1.8 mm | inhibition rate of ankle joint swelling [24]: (20.9%) | Lesion scoring ( X ± SD), joint lesion severity (medium dose group (87 μg/kg·d s.c.)): 4.00 ± 0.67
